Here are results for 5 compounds from patent US5043273A, “Phosphorylated glycosidase inhibitor prodrugs” (Monsanto Company, priority 1989, dated 1991).

Where two headings read alike, the source gives them in different places.

Series [1] has as its target T1, Porcine Microsomal Alpha-Glucosidase I (Sus scrofa, UniProt K7N7E7).
T1 construct: Alpha-glucosidase I was isolated from porcine liver microsomes; from tissue; host or cells: porcine liver microsomes
T1 sequence (K7N7E7 1-839): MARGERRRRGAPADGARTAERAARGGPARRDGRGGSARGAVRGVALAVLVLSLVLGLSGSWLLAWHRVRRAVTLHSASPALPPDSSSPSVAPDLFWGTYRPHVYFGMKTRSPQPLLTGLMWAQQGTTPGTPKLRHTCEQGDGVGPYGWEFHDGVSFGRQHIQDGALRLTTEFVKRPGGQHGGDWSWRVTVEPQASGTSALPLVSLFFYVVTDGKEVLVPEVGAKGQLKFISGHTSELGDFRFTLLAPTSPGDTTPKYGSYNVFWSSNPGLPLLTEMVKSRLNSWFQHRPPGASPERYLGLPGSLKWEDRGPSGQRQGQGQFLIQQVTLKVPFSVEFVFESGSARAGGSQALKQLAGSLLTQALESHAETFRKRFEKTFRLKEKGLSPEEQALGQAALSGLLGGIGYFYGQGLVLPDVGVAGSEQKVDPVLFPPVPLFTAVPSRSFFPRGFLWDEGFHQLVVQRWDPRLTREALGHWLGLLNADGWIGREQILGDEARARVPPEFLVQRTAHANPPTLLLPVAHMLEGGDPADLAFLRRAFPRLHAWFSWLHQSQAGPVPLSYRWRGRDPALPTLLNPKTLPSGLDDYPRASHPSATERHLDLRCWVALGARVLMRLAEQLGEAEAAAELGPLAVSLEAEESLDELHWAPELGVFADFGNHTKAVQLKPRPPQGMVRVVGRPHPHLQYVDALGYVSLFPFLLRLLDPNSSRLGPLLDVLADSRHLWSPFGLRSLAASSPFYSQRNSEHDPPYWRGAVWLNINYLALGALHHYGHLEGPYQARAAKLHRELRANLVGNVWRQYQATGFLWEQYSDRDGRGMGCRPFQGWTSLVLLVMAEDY
The series is described as follows: Inhibition constants against porcine microsomal alpha-glucosidase I. The format is biochemical. The method, then:
Porcine Microsomal Alpha-Glucosidase I. Alpha-glucosidase I was isolated from porcine liver microsomes by an affinity chromatographic method similar to that described by Hettkamp et.al., Eur J. Biochem. 142, 85-90 (1981).
Inhibition constants for the various DNJ derivatives and castanospermine were determined assuming competitive inhibition and were derived from the initial rates for the hydrolysis of [^14 C-Glc]Glc3 Man9 GlcNAc2 (at a concentration of 0.044 μM), at pH7.0 and 37° C. in the presence and absence of several fixed concentrations of each inhibitor.

The target of series [2] is T2, Porcine Intestinal Sucrase (Sus scrofa, UniProt P56729).
T2 construct: both chains cut from one SI precursor
The series is described as follows: Inhibition constants against porcine intestinal sucrase. The format is biochemical. Here is the method:
(§1) Porcine Intestinal Sucrase and Maltase. A sucrase-isomaltase complex was extracted from pig small intestine by treatment with urea and then solubilized by digestion with papain. The enzyme-complex was recovered by ethanol precipitation and then further purified by cellulose DE-52 anion exchange chromatography. The activity of sucrase was assayed by incubating an appropriate amount of enzyme at 37° C. in a final volume of 150 μ1 containing 25 mM sodium citrate buffer, pH 6.0, and 30 mM sucrose as substrate. After 30 min. the enzyme was inactivated by heating at 100° C. for 3 min, the reaction mixture centrifuged at 15000×g for 15 min and a 50 µl aliquot of the supernatant removed and the enzymereleased glucose determined by the glucose oxidase-peroxidase method described by Trinder, Ann. Clin. Biochem. 6, 24 (1969). Under the standard assay conditions, the release of glucose was linear up to 10% hydrolysis of the substrate. […] Maltase activity associated with the sucrase-isomaltase complex [Kolinska and Semenze, Biochim. Biophys. Acta 146, 181 (1967)] was assayed in a manner similar to sucrase except that the substrate was 30 mM maltose. Under the standard assay conditions release of glucose was linear up to 8% hydrolysis of the substrate. The specific activity of maltase was 15.2 units/mg protein.
Inhibition constants for the various DNJ derivatives and castanospermine were determined from Lineweaver-Burk plots of the enzyme-catalyzed reaction in the presence and absence of different fixed concentrations of each inhibitor. Incubations using sucrase were for 30 min at a concentration of 90 milliunits/ml and for maltase were for 12 min at a concentration of 80 milliunits/ml.

For series [3], the target named is T3, Porcine Intestinal Maltase (Sus scrofa, UniProt P56729).
T3 construct: both chains cut from one SI precursor
Briefly: Inhibition constants against porcine intestinal maltase. The format is biochemical. Here is the method: as §1, with “Under the standard assay conditions release of glucose was linear up to 8% hydrolysis of the substrate. The specific activity of maltase was 15.2 units/mg protein.” left out
Inhibition constants for the various DNJ derivatives and castanospermine were determined from Lineweaver-Burk plots of the enzyme-catalyzed reaction in the presence and absence of different fixed concentrations of each inhibitor. […]

The test system of series [4] is human immunodeficiency virus (HIV). As to conditions: at noncytotoxic concentrations; cited from earlier work.
For series [5], the system named is bovine intestinal alkaline phosphatase. The series is described as follows: Dephosphorylation by alkaline phosphatase (biolability of the phosphate group). The format is in vitro ADME. As to conditions: 1 mM compound, 130 U/ml enzyme, 37° C., pH 9.5, 16 h, assayed by HPAEC. Here is the method: N-Butyldeoxynojirimycin-6-phosphate (1 mM) was incubated with bovine intestinal alkaline phosphatase (Sigma Type VII, 130 U/ml) at 37° C. n 0.1 m Na2 Co3 /NaHCO3 buffer, pH 9.5.

Where [6] appears, read: porcine liver microsomes, substrate [14C-Glc]Glc3Man9GlcNAc2 0.044 μM, pH 7.0, 37° C., competitive inhibition assumed, read-out: Ki Microsomal α-Glucosidase I.
[7] abbreviates: pig small intestine, 30 mM sucrose, pH 6.0, 37° C., 30 min, Lineweaver-Burk plots, read-out: Ki Intestinal Sucrase.

T2 sequence (P56729 with tags, fused parts or gaps): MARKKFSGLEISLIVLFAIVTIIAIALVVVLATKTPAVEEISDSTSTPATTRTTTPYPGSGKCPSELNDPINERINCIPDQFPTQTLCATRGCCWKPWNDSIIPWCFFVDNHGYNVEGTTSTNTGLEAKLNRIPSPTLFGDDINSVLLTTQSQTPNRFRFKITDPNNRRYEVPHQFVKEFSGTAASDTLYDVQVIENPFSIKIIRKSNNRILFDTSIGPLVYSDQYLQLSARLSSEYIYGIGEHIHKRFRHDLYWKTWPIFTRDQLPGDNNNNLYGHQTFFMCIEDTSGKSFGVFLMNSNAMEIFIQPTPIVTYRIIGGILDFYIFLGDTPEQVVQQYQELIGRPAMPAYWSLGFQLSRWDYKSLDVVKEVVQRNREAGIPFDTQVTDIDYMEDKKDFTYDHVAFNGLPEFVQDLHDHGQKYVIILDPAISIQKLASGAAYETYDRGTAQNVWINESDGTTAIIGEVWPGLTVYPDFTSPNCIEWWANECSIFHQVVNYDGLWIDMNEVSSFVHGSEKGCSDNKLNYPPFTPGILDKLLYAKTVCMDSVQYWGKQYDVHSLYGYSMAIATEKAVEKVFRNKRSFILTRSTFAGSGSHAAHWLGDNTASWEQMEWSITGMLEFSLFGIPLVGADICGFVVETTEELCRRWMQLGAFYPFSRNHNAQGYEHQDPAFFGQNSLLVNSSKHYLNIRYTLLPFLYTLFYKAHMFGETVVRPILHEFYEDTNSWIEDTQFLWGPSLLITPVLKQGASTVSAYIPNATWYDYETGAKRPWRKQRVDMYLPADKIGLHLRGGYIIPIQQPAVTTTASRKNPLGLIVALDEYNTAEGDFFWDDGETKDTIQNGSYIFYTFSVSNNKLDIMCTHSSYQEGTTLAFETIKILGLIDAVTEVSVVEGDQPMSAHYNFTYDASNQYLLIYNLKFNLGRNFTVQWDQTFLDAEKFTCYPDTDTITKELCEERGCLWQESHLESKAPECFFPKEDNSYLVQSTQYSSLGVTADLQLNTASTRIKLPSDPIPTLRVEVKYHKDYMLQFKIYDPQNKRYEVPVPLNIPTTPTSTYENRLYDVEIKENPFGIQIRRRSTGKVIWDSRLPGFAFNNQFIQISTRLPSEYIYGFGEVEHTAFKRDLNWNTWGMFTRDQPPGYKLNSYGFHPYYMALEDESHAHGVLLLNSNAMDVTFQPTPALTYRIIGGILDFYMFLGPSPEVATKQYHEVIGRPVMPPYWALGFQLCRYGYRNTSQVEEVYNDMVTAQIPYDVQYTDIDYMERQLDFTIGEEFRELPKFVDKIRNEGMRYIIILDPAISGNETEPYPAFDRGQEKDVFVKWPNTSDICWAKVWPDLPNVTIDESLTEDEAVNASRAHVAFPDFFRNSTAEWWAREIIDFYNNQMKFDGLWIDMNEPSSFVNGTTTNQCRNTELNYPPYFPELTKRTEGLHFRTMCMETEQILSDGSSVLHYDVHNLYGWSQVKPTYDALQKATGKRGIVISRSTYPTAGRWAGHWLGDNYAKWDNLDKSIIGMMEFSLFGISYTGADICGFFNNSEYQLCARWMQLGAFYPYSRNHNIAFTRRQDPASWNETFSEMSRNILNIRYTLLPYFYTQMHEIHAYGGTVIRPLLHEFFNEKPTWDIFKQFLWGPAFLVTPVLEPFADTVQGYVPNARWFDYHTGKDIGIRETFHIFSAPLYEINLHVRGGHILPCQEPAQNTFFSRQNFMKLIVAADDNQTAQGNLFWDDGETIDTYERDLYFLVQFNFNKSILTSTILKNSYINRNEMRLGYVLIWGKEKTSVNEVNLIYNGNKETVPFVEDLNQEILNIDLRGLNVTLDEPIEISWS
T3 sequence (P56729 with tags, fused parts or gaps): as above

For orientation: Ki means a dissociation constant, usually derived from enzyme kinetics or from competition with a known ligand. As to `O[C@H]1[C@H](O)[C@@H](O)CN2CC[C@H](O)[C@H]12` [Castanospermine, castanospermine], the Ki in series [1] (setting [6]) was found to be 0.04 µM; in series [2] (setting [7]), 0.064 µM.
Turning to `OC[C@H]1NC[C@H](O)[C@@H](O)[C@@H]1O` [DNJ, deoxynojirimycin], the results for the Ki in series [1] and in series [2] were 0.83 µM and 0.05 µM, respectively.
Turning to `O=P(O)(O)OC[C@H]1NC[C@H](O)[C@@H](O)[C@@H]1O` [DNJ-6-P, deoxynojirimycin-6-phosphate], the Ki in series [1] (setting [6]) amounted to 6600 µM; in series [2] (setting [7]) it was 520 µM.
As for `CCCCN1C[C@H](O)[C@@H](O)[C@H](O)[C@H]1CO` [N-BuDNJ, N-butyldeoxynojirimycin], the Ki in series [1] was 0.22 µM. For the same compound, in series [2], the “Inhibition of sucrase (in words)” value was “potent inhibitor” and the inhibitory constant (Ki) stood at 0.18 µM. Besides, the “Inhibition of maltase (in words)” value in series [3] was “potent inhibitor”. For the same compound, the “Reduction of virus titer” value in series [4] is reported as “greater than five logarithms”.
Turning to `CCCCN1C[C@H](O)[C@@H](O)[C@H](O)[C@H]1COP(=O)(O)O` [N-BuDNJ-6-P, N-butyldeoxynojirimycin-6-phosphate], in series [1], the “Inhibition of α-glucosidase I (in words)” value was “very weak inhibitor”. The values for the Ki in series [1] (setting [6]) and in series [2] (setting [7]) were 4000 µM and 1500 µM, respectively. In addition, in series [2], the “Inhibition of sucrase (in words)” value is given as “very weak inhibitor”. In addition, in series [3], the “Inhibition of maltase (in words)” value is reported as “very weak inhibitor”. The entries for the “Dephosphorylation by alkaline phosphatase” value in series [5] (listed as N-Butyldeoxynojirimycin-6-phosphate) and in series [5] (listed as N-butyl-deoxynojirimycin-6-phosphate) were “completely dephosphorylated” and “completely dephosphorylted”, respectively.
